Patent publication US9249517B2, “Process for production of reduced glutathione” (Kyowa Hakko Bio Co., Ltd., priority 2009, dated 2016)

How the values were obtained:
[1] = 25° C., 24-36 hr
Method: Using an aqueous reduced glutathione solution (100 g/L, pH 2.90) and sulfuric acid, aqueous reduced glutathione solutions (100 g/L) adjusted to pH 0.6, 1.2 and 2.0 were produced.
Each solution was preserved at 25° C. for 24-36 hr, and the residual amount of reduced glutathione was quantified by high performance liquid chromatography (HPLC) under the following conditions. […] As for the impurity, the total amount of the substances other than reduced glutathione and oxidized glutathione was quantified under the following HPLC conditions, and the concentration (g/L) converted to reduced glutathione was calculated.
HPLC Conditions • column: Nucleosil 100-5 C18 φ4.6×150 mm • column temperature: 40° C. • buffer: 10% acetonitrile solution containing 0.405% sodium 1-heptanesulfonate (adjusted to pH 2.0 with phosphoric acid) • flow rate: 1.0 mL/min • detector: UV detector (wavelength 210 nm)

[2] = Solubility of oxidized glutathione in water; format: physicochemical
Excerpt: Utilizing this characteristic, a solution of oxidized glutathione with concentration beyond saturation solubility can be prepared. […] While the concentration of the supersaturated aqueous oxidized glutathione solution containing a conducting agent other than acid is not limited as long as it can maintain supersaturation state, it is 50 g/L or more, preferably 100 g/L or more, more preferably 150 g/L or more, further preferably 200 g/L or more, most preferably 300 g/L or more.

Compound	reduced glutathione residual ratio ([1]; 100 g/L aqueous solution at pH 2.0 or less (pH 0.6, 1.2, 2.0, sulfuric acid) vs pH 2.90, FIG. 1A)	increased amount of impurity due to hydrolysis ([1]; 100 g/L aqueous solution at pH 2.0 or less vs pH 2.90, FIG. 1B)	stability of supersaturation state ([2]; ambient temperature, requires several days before crystallizing)	supersaturation solubility ([2]; once dissolved, aqueous solution)	saturation solubility in water ([2]; water, ambient temperature (25° C.)) [mg/mL]
N[C@@H](CCC(=O)N[C@@H](CS)C(=O)NCC(=O)O)C(=O)O [reduced glutathione]	lower reduced glutathione residual ratio as compared to a solution at pH 2.90	higher increased amount of impurity due to hydrolysis as compared to a solution at pH 2.90			
oxidized glutathione			stable at ambient temperature	over 300 g/L	≤ 20
